Results reported in ChEMBL document CHEMBL5303766, “Data for DCP probe FHT-2344” (2022).

Assays:
[1] = biological target: Dual specificity mitogen-activated protein kinase kinase 1 (Homo sapiens) (UniProt Q02750); assay: MAP2K1 SGC Tm panel (DSF); settings: for ΔTm: Compound concentration 10.0 uM
[2] = biological target: T1, Serine/threonine-protein kinase Nek2 (Homo sapiens) (UniProt P51955); assay: NEK2 SGC Tm panel (DSF); settings: for ΔTm: Compound concentration 10.0 uM
T1 sequence (whole entry): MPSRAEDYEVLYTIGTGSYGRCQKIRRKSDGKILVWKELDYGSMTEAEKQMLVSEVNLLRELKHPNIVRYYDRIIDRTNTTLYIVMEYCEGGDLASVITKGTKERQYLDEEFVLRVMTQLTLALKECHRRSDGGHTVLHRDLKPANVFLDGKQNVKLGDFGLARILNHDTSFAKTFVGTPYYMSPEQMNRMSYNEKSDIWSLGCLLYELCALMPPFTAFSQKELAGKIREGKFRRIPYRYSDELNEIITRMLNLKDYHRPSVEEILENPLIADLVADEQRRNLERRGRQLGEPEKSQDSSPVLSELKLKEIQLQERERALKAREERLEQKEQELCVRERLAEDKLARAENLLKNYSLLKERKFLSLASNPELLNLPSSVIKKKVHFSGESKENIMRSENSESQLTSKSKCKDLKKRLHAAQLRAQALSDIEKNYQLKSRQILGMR

[3] = biological target: RAC-gamma serine/threonine-protein kinase (Homo sapiens) (UniProt Q9Y243); assay: AKT3 SGC Tm panel (DSF); settings: for ΔTm: Compound concentration 10.0 uM
RAC-gamma serine/threonine-protein kinase (Homo sapiens), sequence (Q9Y243 whole entry): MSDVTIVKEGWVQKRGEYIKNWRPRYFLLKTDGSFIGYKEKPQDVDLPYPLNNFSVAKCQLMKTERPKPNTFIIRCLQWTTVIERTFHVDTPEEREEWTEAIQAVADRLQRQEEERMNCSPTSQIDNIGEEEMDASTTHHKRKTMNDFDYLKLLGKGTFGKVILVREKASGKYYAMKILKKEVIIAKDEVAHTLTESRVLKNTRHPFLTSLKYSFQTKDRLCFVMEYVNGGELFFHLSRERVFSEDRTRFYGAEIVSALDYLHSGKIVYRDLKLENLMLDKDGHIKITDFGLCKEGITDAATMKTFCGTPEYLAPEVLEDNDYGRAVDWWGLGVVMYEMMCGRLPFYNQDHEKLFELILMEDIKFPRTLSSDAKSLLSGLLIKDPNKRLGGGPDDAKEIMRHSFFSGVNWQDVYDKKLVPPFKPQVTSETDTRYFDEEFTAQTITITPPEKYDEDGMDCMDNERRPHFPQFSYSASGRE

[4] = biological target: Ribosomal protein S6 kinase alpha-5 (Homo sapiens) (UniProt O75582); assay: RPS6KA5 SGC Tm panel (DSF); settings: for ΔTm: Compound concentration 10.0 uM
Ribosomal protein S6 kinase alpha-5 (Homo sapiens), sequence (O75582 whole entry, looked up): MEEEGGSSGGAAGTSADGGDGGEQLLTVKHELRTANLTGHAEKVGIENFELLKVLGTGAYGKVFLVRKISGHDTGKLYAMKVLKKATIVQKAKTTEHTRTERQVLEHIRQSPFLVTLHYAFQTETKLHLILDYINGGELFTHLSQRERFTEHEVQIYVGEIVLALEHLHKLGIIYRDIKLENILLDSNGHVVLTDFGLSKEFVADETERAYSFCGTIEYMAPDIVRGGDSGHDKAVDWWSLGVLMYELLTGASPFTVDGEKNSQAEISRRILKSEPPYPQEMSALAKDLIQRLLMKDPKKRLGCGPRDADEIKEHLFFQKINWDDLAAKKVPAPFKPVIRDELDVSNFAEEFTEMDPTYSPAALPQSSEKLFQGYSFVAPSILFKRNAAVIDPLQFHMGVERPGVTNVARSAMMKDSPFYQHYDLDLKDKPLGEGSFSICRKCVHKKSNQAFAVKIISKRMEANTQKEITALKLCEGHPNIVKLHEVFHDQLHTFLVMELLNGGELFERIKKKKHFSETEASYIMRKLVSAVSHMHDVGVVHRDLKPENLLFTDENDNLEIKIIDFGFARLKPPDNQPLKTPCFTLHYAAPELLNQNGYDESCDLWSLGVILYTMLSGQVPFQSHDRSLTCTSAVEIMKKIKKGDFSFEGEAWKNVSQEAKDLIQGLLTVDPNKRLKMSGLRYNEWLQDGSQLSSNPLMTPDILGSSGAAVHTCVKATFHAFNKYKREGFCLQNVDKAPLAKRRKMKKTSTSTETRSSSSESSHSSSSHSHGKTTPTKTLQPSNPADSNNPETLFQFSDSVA

[5] = biological target: Proto-oncogene tyrosine-protein kinase Src (Homo sapiens) (UniProt P12931); assay: SRC SGC Tm panel (DSF); settings: for ΔTm: Compound concentration 10.0 uM
Proto-oncogene tyrosine-protein kinase Src (Homo sapiens), sequence (P12931 2-536 limits assumed): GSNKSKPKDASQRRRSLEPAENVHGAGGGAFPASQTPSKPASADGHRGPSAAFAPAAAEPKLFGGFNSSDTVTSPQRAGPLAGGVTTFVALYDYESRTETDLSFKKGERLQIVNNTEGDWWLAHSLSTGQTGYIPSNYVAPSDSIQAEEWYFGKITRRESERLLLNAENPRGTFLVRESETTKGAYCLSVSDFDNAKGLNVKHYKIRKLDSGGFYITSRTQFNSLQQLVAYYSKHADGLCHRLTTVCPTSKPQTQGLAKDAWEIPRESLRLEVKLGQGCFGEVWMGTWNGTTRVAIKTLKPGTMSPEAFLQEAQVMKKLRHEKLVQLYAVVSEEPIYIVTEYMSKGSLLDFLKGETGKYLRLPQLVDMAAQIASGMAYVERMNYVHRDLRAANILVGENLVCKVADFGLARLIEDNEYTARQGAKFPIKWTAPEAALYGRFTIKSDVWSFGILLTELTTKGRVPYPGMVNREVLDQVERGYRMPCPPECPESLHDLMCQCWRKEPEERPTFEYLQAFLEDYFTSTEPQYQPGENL

[6] = biological target: T2, Serine/threonine-protein kinase VRK1 (Homo sapiens) (UniProt Q99986); assay: VRK1 SGC Tm panel (DSF); settings: for ΔTm: Compound concentration 10.0 uM
T2 sequence (whole entry): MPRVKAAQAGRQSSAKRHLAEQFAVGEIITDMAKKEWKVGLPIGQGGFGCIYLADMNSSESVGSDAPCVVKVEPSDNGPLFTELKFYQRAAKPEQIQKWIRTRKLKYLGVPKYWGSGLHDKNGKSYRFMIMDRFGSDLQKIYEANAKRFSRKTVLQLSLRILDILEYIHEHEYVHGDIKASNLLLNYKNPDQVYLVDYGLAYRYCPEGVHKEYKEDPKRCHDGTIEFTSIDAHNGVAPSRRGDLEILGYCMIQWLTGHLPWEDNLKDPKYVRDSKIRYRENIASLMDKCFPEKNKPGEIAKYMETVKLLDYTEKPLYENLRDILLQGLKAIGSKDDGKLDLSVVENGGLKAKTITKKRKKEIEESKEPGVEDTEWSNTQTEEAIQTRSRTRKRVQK

[7] = biological target: Casein kinase I isoform epsilon (Homo sapiens) (UniProt P49674); assay: CSNK1E SGC Tm panel (DSF); settings: for ΔTm: Compound concentration 10.0 uM
Casein kinase I isoform epsilon (Homo sapiens), sequence (P49674 whole entry, looked up, canonical isoform): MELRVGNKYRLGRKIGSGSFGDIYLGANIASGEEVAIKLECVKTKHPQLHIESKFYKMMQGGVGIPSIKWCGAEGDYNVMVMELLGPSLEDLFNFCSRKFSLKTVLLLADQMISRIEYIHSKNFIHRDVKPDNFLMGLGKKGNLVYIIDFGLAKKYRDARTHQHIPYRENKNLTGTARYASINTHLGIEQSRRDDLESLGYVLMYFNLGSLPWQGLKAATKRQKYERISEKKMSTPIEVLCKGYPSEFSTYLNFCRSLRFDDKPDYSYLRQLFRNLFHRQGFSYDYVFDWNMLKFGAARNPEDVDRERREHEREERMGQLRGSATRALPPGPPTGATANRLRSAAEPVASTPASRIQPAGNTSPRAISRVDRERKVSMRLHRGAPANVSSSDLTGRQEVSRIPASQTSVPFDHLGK

[8] = biological target: T3, Ferrochelatase, mitochondrial (Homo sapiens) (UniProt P22830); assay: FECH SGC Tm panel (DSF); settings: for ΔTm: Compound concentration 10.0 uM
T3 sequence (whole entry): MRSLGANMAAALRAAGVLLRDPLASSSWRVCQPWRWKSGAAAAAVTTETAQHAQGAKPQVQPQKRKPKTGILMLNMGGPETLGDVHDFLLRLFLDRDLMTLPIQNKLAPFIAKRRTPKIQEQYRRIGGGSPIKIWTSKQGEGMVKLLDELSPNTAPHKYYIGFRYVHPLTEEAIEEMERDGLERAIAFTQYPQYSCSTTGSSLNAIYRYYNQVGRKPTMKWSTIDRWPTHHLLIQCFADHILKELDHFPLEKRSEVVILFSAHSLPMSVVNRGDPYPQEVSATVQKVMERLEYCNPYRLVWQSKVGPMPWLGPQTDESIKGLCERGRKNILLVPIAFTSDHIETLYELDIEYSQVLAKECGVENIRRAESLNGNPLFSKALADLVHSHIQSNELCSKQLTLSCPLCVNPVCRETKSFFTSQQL

[9] = biological target: 5-hydroxytryptamine receptor 2A (Homo sapiens) (UniProt P28223); settings: Compound concentration 10.0 uM
5-hydroxytryptamine receptor 2A (Homo sapiens), sequence (P28223 whole entry): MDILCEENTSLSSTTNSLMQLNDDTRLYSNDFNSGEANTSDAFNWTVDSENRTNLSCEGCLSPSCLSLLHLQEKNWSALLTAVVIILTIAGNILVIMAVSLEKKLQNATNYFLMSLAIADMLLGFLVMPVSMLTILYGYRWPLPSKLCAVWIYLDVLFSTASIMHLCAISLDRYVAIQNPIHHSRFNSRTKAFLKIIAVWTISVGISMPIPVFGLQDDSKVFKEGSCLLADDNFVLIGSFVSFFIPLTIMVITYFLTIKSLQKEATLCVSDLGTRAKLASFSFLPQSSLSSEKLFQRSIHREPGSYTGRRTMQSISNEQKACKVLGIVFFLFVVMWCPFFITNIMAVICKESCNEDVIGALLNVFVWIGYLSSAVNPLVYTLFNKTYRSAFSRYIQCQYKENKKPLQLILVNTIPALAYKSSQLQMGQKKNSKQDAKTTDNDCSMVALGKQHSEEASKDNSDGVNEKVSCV

[10] = biological target: Delta-type opioid receptor (Homo sapiens) (UniProt P41143); settings: Compound concentration 10.0 uM
Delta-type opioid receptor (Homo sapiens), sequence (P41143 whole entry): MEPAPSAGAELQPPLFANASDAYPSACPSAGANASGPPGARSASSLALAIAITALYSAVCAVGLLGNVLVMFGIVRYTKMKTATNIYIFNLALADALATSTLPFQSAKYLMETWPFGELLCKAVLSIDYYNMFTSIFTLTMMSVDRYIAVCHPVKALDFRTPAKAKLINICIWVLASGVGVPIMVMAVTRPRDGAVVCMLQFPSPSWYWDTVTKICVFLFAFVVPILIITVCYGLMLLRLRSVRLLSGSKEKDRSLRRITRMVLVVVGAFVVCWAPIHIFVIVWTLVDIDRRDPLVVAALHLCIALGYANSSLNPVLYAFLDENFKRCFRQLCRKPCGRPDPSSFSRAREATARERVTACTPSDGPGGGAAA

[11] = biological target: Alpha-2C adrenergic receptor (Homo sapiens) (UniProt P18825); settings: Compound concentration 10.0 uM
Alpha-2C adrenergic receptor (Homo sapiens), sequence (P18825 whole entry): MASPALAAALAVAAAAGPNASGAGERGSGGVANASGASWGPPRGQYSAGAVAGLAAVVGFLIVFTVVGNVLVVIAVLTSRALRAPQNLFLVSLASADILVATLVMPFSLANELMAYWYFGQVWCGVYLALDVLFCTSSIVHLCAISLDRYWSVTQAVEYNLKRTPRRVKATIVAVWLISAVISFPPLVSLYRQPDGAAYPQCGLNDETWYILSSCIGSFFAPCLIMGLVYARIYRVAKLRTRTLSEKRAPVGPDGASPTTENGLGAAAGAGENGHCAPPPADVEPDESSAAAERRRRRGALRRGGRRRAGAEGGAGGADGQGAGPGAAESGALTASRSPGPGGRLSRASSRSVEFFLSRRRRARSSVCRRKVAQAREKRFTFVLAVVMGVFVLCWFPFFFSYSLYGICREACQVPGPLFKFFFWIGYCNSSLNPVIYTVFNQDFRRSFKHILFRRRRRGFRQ

Dual specificity mitogen-activated protein kinase kinase 1 (Homo sapiens), sequence (Q02750 whole entry): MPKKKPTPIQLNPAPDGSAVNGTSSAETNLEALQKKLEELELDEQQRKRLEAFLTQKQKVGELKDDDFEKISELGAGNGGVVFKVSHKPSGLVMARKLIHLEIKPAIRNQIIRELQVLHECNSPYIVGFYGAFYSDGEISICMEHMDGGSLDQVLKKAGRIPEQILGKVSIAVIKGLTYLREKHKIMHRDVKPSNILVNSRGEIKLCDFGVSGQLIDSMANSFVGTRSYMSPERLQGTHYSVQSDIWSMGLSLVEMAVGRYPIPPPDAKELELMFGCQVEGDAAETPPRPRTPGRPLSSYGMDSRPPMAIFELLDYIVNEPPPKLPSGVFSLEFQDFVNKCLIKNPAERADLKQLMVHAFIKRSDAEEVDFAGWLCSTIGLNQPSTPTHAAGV

Compound	delta Tm Staurosporine positive control [1]	ΔTm [1]	delta Tm Staurosporine positive control [2]	ΔTm [2]	delta Tm Staurosporine positive control [3]	ΔTm [3]	delta Tm Staurosporine positive control [4]	ΔTm [4]	delta Tm Staurosporine positive control [5]	ΔTm [5]	delta Tm Staurosporine positive control [6]	ΔTm [6]	delta Tm Staurosporine positive control [7]	ΔTm [7]	delta Tm Staurosporine positive control [8]	ΔTm [8]	inhibition [9]	inhibition [10]	inhibition [11]
C[C@H](NC(=O)c1cn(C2(C#N)CC2)cn1)C(=O)Nc1nc(-c2cccc(-c3ccn(C)n3)c2)cs1	5.5	-0.126	3.7	-0.146	7.03	0.193	13.1	-0.0945	5.5	0.346	3.19	0.296	3.74	0.73	1.69	-0.558	-5.53%	12.4%	11.2%
COC[C@H](NC(=O)c1ccn(S(C)(=O)=O)c1)C(=O)Nc1nc(-c2cccc(-c3ccn(C)n3)c2)cs1	5.5	-0.11	3.7	0.182	7.03	0.0196	13.1	1.16	5.5	-0.156	3.19	0.303	3.74	0.508	1.69	0.0581	4.18%	9.17%	10.2%
